Measured values as given in the NIST ThermoML archive (doi:10.1021/je050538q).

Columns and labels:
[1] = Liquid
[2] = refractive index (Na D-line) (dimensionless); details: 298.15 K; 101.33 kPa; Liquid
[3] = xn = mol fraction of the nth substance listed; details: 298.15 K, 101 kPa, Liquid
[4] = refractive index (Na D-line) (dimensionless); xn = mol fraction of the nth substance listed; details: 298.15 K, 101 kPa, Liquid

CCC(C)(C)O [2-methylbutan-2-ol]
[1], 298.15 K, 101 kPa
Details | mass density [kg/m3] | viscosity [mPa·s]
– | 804.98 | 3.645

Details | viscosity [mPa·s]
[1], 303.15 K, 101.33 kPa, Capillary tube (Ostwald / Ubbelohde) method | 2.81

Details | refractive index
[2] | 1.4025

CCC(C)(C)O [2-methylbutan-2-ol] + CC(=O)N(C)C
Details | mass density, [3] [kg/m3] | refractive index, [4] | viscosity, [3] [mPa·s]
x2 = 0 | 804.98 | 1.4025 | 3.645
x2 = 0.0112 | 806.65 | 1.4031 | 3.6
x2 = 0.0284 | 809.1 | 1.404 | 3.533
x2 = 0.0423 | 810.93 | 1.4046 | 3.48
x2 = 0.0681 | 814.29 | 1.4058 | 3.381
x2 = 0.1023 | 818.47 | 1.4072 | 3.254
x2 = 0.1613 | 825.31 | 1.4095 | 3.041
x2 = 0.2112 | 830.81 | 1.4113 | 2.87
x2 = 0.253 | 835.39 | 1.4128 | 2.731
x2 = 0.2912 | 839.58 | 1.4141 | 2.608
x2 = 0.3366 | 844.6 | 1.4156 | 2.467
x2 = 0.3844 | 850.11 | 1.4171 | 2.325
x2 = 0.4203 | 854.29 | 1.4182 | 2.221
x2 = 0.4743 | 860.87 | 1.4198 | 2.071
x2 = 0.5864 | 875.18 | 1.423 | 1.78
x2 = 0.6721 | 886.7 | 1.4254 | 1.578
x2 = 0.7474 | 897.47 | 1.4276 | 1.413
x2 = 0.8321 | 910.06 | 1.4302 | 1.242
x2 = 0.9168 | 923.22 | 1.4329 | 1.086
x2 = 0.954 | 929.18 | 1.4341 | 1.021

CCC(C)(C)O [2-methylbutan-2-ol] + CCOC(C)=O
Details | mass density, [3] [kg/m3] | refractive index, [4] | viscosity, [3] [mPa·s]
x1 = 0.0279 | 891.15 | 1.3711 | 0.464
x1 = 0.0573 | 887.59 | 1.3723 | 0.508
x1 = 0.096 | 883.06 | 1.3739 | 0.567
x1 = 0.1672 | 874.97 | 1.3767 | 0.691
x1 = 0.2475 | 866.39 | 1.3798 | 0.85
x1 = 0.3322 | 857.83 | 1.383 | 1.041
x1 = 0.4168 | 849.81 | 1.3861 | 1.261
x1 = 0.4994 | 842.59 | 1.3891 | 1.503
x1 = 0.5831 | 835.67 | 1.3919 | 1.776
x1 = 0.6658 | 829.16 | 1.3946 | 2.078
x1 = 0.7486 | 822.86 | 1.397 | 2.412
x1 = 0.8336 | 816.62 | 1.3993 | 2.791
x1 = 0.9149 | 810.81 | 1.4011 | 3.188
x1 = 0.9445 | 808.73 | 1.4017 | 3.344
x1 = 0.9712 | 806.91 | 1.4021 | 3.486
x1 = 1 | 804.98 | 1.4025 | 3.645

CC(=O)N(C)C [N,N-dimethylethanamide]
[1], 298.15 K, 101 kPa
Details | mass density [kg/m3] | viscosity [mPa·s]
– | 936.7 | 0.945

Details | refractive index
[2] | 1.4357

CC(=O)N(C)C [N,N-dimethylethanamide] + CCC(C)(C)O
x1 = 1
Details | mass density [kg/m3] | refractive index | viscosity [mPa·s]
[3] | 936.7 | – | 0.945
[4] | – | 1.4357 | –

CC(=O)N(C)C [N,N-dimethylethanamide] + CCOC(C)=O
Details | mass density, [3] [kg/m3] | refractive index, [4] | viscosity, [3] [mPa·s]
x1 = 0.0392 | 896.84 | 1.3731 | 0.442
x1 = 0.0791 | 898.95 | 1.3763 | 0.458
x1 = 0.156 | 902.75 | 1.3824 | 0.49
x1 = 0.2331 | 906.43 | 1.3883 | 0.523
x1 = 0.3109 | 909.97 | 1.3942 | 0.558
x1 = 0.3875 | 913.34 | 1.3999 | 0.595
x1 = 0.4646 | 916.63 | 1.4054 | 0.634
x1 = 0.541 | 919.8 | 1.4106 | 0.674
x1 = 0.6137 | 922.68 | 1.4153 | 0.713
x1 = 0.6931 | 925.71 | 1.4201 | 0.757
x1 = 0.7718 | 928.62 | 1.4246 | 0.803
x1 = 0.8145 | 930.15 | 1.4269 | 0.828
x1 = 0.8896 | 932.81 | 1.4307 | 0.874
x1 = 0.9558 | 935.14 | 1.4338 | 0.916
x1 = 1 | 936.7 | 1.4357 | 0.945

CCOC(C)=O [ethyl acetate]
[1], 298.15 K, 101 kPa
Details | mass density [kg/m3] | viscosity [mPa·s]
– | 894.6 | 0.426

Details | refractive index
[2] | 1.3699

CCOC(C)=O [ethyl acetate] + CC(=O)N(C)C
x2 = 0
Details | mass density [kg/m3] | refractive index | viscosity [mPa·s]
[3] | 894.6 | – | 0.426
[4] | – | 1.3699 | –

CCOC(C)=O [ethyl acetate] + CCC(C)(C)O
x2 = 0
Details | mass density [kg/m3] | refractive index | viscosity [mPa·s]
[3] | 894.6 | – | 0.426
[4] | – | 1.3699 | –
